Measurements: patent US12194124B2, “Personal care compositions for treating odor causing bacteria and methods for the same” (Colgate-Palmolive Company, priority 2019, dated 2025)

Test system: C. Striatum
Assay: Growth inhibition assay in 96-well plate, optical density of C. Striatum
Assay type: cell-based, Corynebacterium striatum
Protocol: The efficacy of 2-butyl octanol for selectively promoting, inhibiting, reducing, and/or treating bacterial growth was evaluated. Particularly, the efficacy of 2-butyl octanol for selectively promoting, inhibiting, reducing, and/or treating bacterial growth of Corynebacterium and Staphylococcus was evaluated. To evaluate the efficacy, an active solution was prepared by emulsifying 2-butyl octanol with a nonionic surfactant, namely, Polysorbate 80. The active solution included the 2-butyl octanol and the Polysorbate 80 in a ratio of about 83:17. Both positive controls (including no active solution) and negative controls (including no bacteria) were also prepared.
A 96-well plate was utilized to evaluate the growth of the respective bacteria at varying dilutions. Each of the wells of a 96-well plate was aseptically filled with about 100 μL of Tryptic Soy Broth (TSB). In the first well of each row, about 100 μL of either the active solution (including the 2-butyl octanol and Polysorbate 80) or the desired solvent for the respective positive and negative controls was added to thereby provide a total of about 200 μL in the first well of the each respective row. A multi-channel pipette was then utilized to prepare a two-fold dilution in each column. Specifically, a multi-channel pipette set to about 100 μL was utilized to mix and transfer about 100 μL of the 200 μL from the wells of the first column to the respective wells of a subsequent column. This was repeated for each of the remaining eleven columns. About 100 μL of the twelfth column was removed, thereby leaving about 100 μL in each of the 96 wells. […] Specifically, a phosphate buffered saline (PBS) was utilized for the negative control. About 100 μL of the respective bacteria adjusted to 0.1 optical density (OD) bacteria was added to all other wells. The well plate was then incubated overnight at about 37° C. in a growth inhibition assay machine. Measurements were taken at about one hour increments.

With `CCCCCCC(CO)CCCC` (stereo not shown) [2-butyl octanol, 2-butyl-1-octanol] the “Measured Optical Density of C. Striatum” value (0.02% 2-Butyl Octanol, 1 Hour) was 0, the “Measured Optical Density of C. Striatum” value (0.02% 2-Butyl Octanol, 2 Hour) was 0.086 and the “Measured Optical Density of C. Striatum” value (0.02% 2-Butyl Octanol, 3 Hour) was 0.13. For the same molecule, the “Measured Optical Density of C. Striatum” value (0.02% 2-Butyl Octanol, 4 Hour) was 0.139, the “Measured Optical Density of C. Striatum” value (0.02% 2-Butyl Octanol, 5 Hour) was 0.143 and the “Measured Optical Density of C. Striatum” value (0.02% 2-Butyl Octanol, 6 Hour) was 0.144. The “Measured Optical Density of C. Striatum” value (0.02% 2-Butyl Octanol, 7 Hour) was 0.144, the “Measured Optical Density of C. Striatum” value (0.02% 2-Butyl Octanol, 8 Hour) was 0.144 and the “Measured Optical Density of C. Striatum” value (0.02% 2-Butyl Octanol, 9 Hour) was 0.146. For the same molecule, the “Measured Optical Density of C. Striatum” value (0.02% 2-Butyl Octanol, 10 Hour) was 0.149, the “Measured Optical Density of C. Striatum” value (0.02% 2-Butyl Octanol, 11 Hour) was 0.155 and the “Measured Optical Density of C. Striatum” value (0.02% 2-Butyl Octanol, 12 Hour) was 0.163. The “Measured Optical Density of C. Striatum” value (0.02% 2-Butyl Octanol, 13 Hour) was 0.178, the “Measured Optical Density of C. Striatum” value (0.02% 2-Butyl Octanol, 14 Hour) was 0.21 and the “Measured Optical Density of C. Striatum” value (0.02% 2-Butyl Octanol, 15 Hour) was 0.254. The “Measured Optical Density of C. Striatum” value (0.02% 2-Butyl Octanol, 16 Hour) was 0.322, the “Measured Optical Density of C. Striatum” value (0.02% 2-Butyl Octanol, 17 Hour) was 0.404 and the “Measured Optical Density of C. Striatum” value (0.02% 2-Butyl Octanol, 18 Hour) was 0.52. The “Measured Optical Density of C. Striatum” value (0.04% 2-Butyl Octanol, 1 Hour) was 0.006, the “Measured Optical Density of C. Striatum” value (0.04% 2-Butyl Octanol, 2 Hour) was 0.058 and the “Measured Optical Density of C. Striatum” value (0.04% 2-Butyl Octanol, 3 Hour) was 0.088. For the same molecule, the “Measured Optical Density of C. Striatum” value (0.04% 2-Butyl Octanol, 4 Hour) was 0.1, the “Measured Optical Density of C. Striatum” value (0.04% 2-Butyl Octanol, 5 Hour) was 0.111 and the “Measured Optical Density of C. Striatum” value (0.04% 2-Butyl Octanol, 6 Hour) was 0.117. For the same molecule, the “Measured Optical Density of C. Striatum” value (0.04% 2-Butyl Octanol, 7 Hour) was 0.121, the “Measured Optical Density of C. Striatum” value (0.04% 2-Butyl Octanol, 8 Hour) was 0.124 and the “Measured Optical Density of C. Striatum” value (0.04% 2-Butyl Octanol, 9 Hour) was 0.127. The “Measured Optical Density of C. Striatum” value (0.04% 2-Butyl Octanol, 10 Hour) was 0.13, the “Measured Optical Density of C. Striatum” value (0.04% 2-Butyl Octanol, 11 Hour) was 0.133 and the “Measured Optical Density of C. Striatum” value (0.04% 2-Butyl Octanol, 12 Hour) was 0.136. For the same molecule, the “Measured Optical Density of C. Striatum” value (0.04% 2-Butyl Octanol, 13 Hour) was 0.141, the “Measured Optical Density of C. Striatum” value (0.04% 2-Butyl Octanol, 14 Hour) was 0.149 and the “Measured Optical Density of C. Striatum” value (0.04% 2-Butyl Octanol, 15 Hour) was 0.166. For the same molecule, the “Measured Optical Density of C. Striatum” value (0.04% 2-Butyl Octanol, 16 Hour) was 0.192, the “Measured Optical Density of C. Striatum” value (0.04% 2-Butyl Octanol, 17 Hour) was 0.234 and the “Measured Optical Density of C. Striatum” value (0.04% 2-Butyl Octanol, 18 Hour) was 0.298. For the same molecule, the “Measured Optical Density of C. Striatum” value (0.08% 2-Butyl Octanol, 1 Hour) was 0.014, the “Measured Optical Density of C. Striatum” value (0.08% 2-Butyl Octanol, 2 Hour) was 0.07 and the “Measured Optical Density of C. Striatum” value (0.08% 2-Butyl Octanol, 3 Hour) was 0.108. The “Measured Optical Density of C. Striatum” value (0.08% 2-Butyl Octanol, 4 Hour) was 0.118, the “Measured Optical Density of C. Striatum” value (0.08% 2-Butyl Octanol, 5 Hour) was 0.124 and the “Measured Optical Density of C. Striatum” value (0.08% 2-Butyl Octanol, 6 Hour) was 0.127. For the same molecule, the “Measured Optical Density of C. Striatum” value (0.08% 2-Butyl Octanol, 7 Hour) was 0.129, the “Measured Optical Density of C. Striatum” value (0.08% 2-Butyl Octanol, 8 Hour) was 0.131 and the “Measured Optical Density of C. Striatum” value (0.08% 2-Butyl Octanol, 9 Hour) was 0.132. The “Measured Optical Density of C. Striatum” value (0.08% 2-Butyl Octanol, 10 Hour) was 0.133, the “Measured Optical Density of C. Striatum” value (0.08% 2-Butyl Octanol, 11 Hour) was 0.133 and the “Measured Optical Density of C. Striatum” value (0.08% 2-Butyl Octanol, 12 Hour) was 0.134. For the same molecule, the “Measured Optical Density of C. Striatum” value (0.08% 2-Butyl Octanol, 13 Hour) was 0.137, the “Measured Optical Density of C. Striatum” value (0.08% 2-Butyl Octanol, 14 Hour) was 0.141 and the “Measured Optical Density of C. Striatum” value (0.08% 2-Butyl Octanol, 15 Hour) was 0.151. For the same molecule, the “Measured Optical Density of C. Striatum” value (0.08% 2-Butyl Octanol, 16 Hour) was 0.168, the “Measured Optical Density of C. Striatum” value (0.08% 2-Butyl Octanol, 17 Hour) was 0.194 and the “Measured Optical Density of C. Striatum” value (0.08% 2-Butyl Octanol, 18 Hour) was 0.23. The “Measured Optical Density of C. Striatum” value (0.16% 2-Butyl Octanol, 1 Hour) was 0.038, the “Measured Optical Density of C. Striatum” value (0.16% 2-Butyl Octanol, 2 Hour) was 0.037 and the “Measured Optical Density of C. Striatum” value (0.16% 2-Butyl Octanol, 3 Hour) was 0.036. For the same molecule, the “Measured Optical Density of C. Striatum” value (0.16% 2-Butyl Octanol, 4 Hour) was 0.036, the “Measured Optical Density of C. Striatum” value (0.16% 2-Butyl Octanol, 5 Hour) was 0.036 and the “Measured Optical Density of C. Striatum” value (0.16% 2-Butyl Octanol, 6 Hour) was 0.036. For the same molecule, the “Measured Optical Density of C. Striatum” value (0.16% 2-Butyl Octanol, 7 Hour) was 0.035, the “Measured Optical Density of C. Striatum” value (0.16% 2-Butyl Octanol, 8 Hour) was 0.036 and the “Measured Optical Density of C. Striatum” value (0.16% 2-Butyl Octanol, 9 Hour) was 0.036. The “Measured Optical Density of C. Striatum” value (0.16% 2-Butyl Octanol, 10 Hour) was 0.037, the “Measured Optical Density of C. Striatum” value (0.16% 2-Butyl Octanol, 11 Hour) was 0.037 and the “Measured Optical Density of C. Striatum” value (0.16% 2-Butyl Octanol, 12 Hour) was 0.037. For the same molecule, the “Measured Optical Density of C. Striatum” value (0.16% 2-Butyl Octanol, 13 Hour) was 0.038, the “Measured Optical Density of C. Striatum” value (0.16% 2-Butyl Octanol, 14 Hour) was 0.038 and the “Measured Optical Density of C. Striatum” value (0.16% 2-Butyl Octanol, 15 Hour) was 0.039. The “Measured Optical Density of C. Striatum” value (0.16% 2-Butyl Octanol, 16 Hour) was 0.04, the “Measured Optical Density of C. Striatum” value (0.16% 2-Butyl Octanol, 17 Hour) was 0.041 and the “Measured Optical Density of C. Striatum” value (0.16% 2-Butyl Octanol, 18 Hour) was 0.041. The “growth of C. stratium” value (2-butyl octanol at least about 1.6% or greater (Table 3)) was “completely inhibited”.
